Structures can show the parent of a compound that is named as a salt.
What was measured:
[1] = test system: T1, human histone deacetylase partially purified from human T cell leukemia Jurkat cells; assay: Test 1: Determination of histone deacetylase inhibitor activity ([3H]acetyl histone deacetylation); type: biochemical; conditions: partially purified human HDAC from Jurkat cells, [3H]acetyl histone substrate, 25° C., 30 minutes; read-out: Test 1: HDAC inhibitory activity IC50
T1 construct: The human histone deacetylase was partially purified from human T cell leukemia Jurkat cells
Method: Test 1: Determination of Histone Deacetylase Inhibitor Activity
The partial purification of human histone deacetylase, the preparation of [^3H] acetyl histones, and the assay for histone deacetylase activity were performed basically according to the method as proposed by Yoshida et al. as follows.
Partial Purification of Human Histone Deacetylase
The human histone deacetylase was partially purified from human T cell leukemia Jurkat cells. Jurkat cells (5×10^8 cells) were suspended in 40 mL of the HDA buffer consisting of 15 mM potassium phosphate, pH 7.5, 5% glycerol and 0.2 mM EDTA. After homogenization, nuclei were collected by centrifugation (35,000×g, 10 min) and homogenized in 20 mL of the same buffer supplemented with 1 M (NH4)2SO4. The viscous homogenate was sonicated and clarified by centrifugation (35,000×g, 10 min), and the deacetylase was precipitated by raising the concentration of (NH4)2SO4 to 3.5 M. The precipitated protein was dissolved in 10 mL of the HDA buffer and dialyzed against 4 liters of the same buffer. The dialyzate was then loaded onto a DEAE-cellulose (Whatman DE52) column (25×85 mm) equilibrated with the same buffer and eluted with 300 mL of a linear gradient (0-0.6 M) of NaCl. A single peak of histone deacetylase activity appeared between 0.3 and 0.4 M NaCl.
Preparation of [^3H] Acetyl Histone
To obtain [^3H] acetyl-labeled histone as the substrate for the histone deacetylase assay, 1×10^8 cells of Jurkat in 20 mL of RPMI-1640 medium (supplemented with 10% FBS, penicillin (50 units/mL) and streptomycin (50 μg/mL)) were incubated with 300 MBq [^3H] sodium acetate in the presence of 5 mM sodium butyrate for 30 minutes in 5% CO2-95% air atmosphere at 37° C. in a […] flask, harvested into a centrifuge tube (50 mL), collected by centrifugation at 1000 rpm for 10 minutes, and washed once with phosphate-buffered saline. The washed cells were suspended in 15 mL of ice-cold lysis buffer (10 mM Tris-HCl, 50 mM sodium bisulfite, 1% Triton X-100, 10 mM MgCl2, 8.6% sucrose, pH 6.5). After Dounce homogenization (30 stroke), the nuclei were collected by centrifugation at 1000 rpm for 10 minutes, washed 3 times with 15 mL of the lysis buffer, and once with 15 mL of ice-cooled washing buffer (10 mM Tris-HCl, 13 mM EDTA, pH 7.4) successively. The pellet was suspended in 6 mL of ice-cooled water using a mixer, and 68 μl of H2SO4 was added to the suspension to give a concentration of 0.4 N. After incubation at 4° C. for 1 hour, the suspension was centrifuged for 5 minutes at 15,000 rpm, and the supernatant was taken and mixed with 60 mL of acetone. After overnight incubation at −20° C., the coagulated material was collected by microcentrifugation, air-dried, and stored at −80° C.
Assay for Histone Deacetylase Activity
For the standard assay, 10 μl of [^3H] acetyl-labeled histones were added to 90 μl of the enzyme fraction, and the mixture was incubated at 25° C. for 30 minutes. The reaction was stopped by addition of 10 μl of HCl. The released [^3H] acetic acid was extracted with 1 mL of ethyl acetate, and 0.9 mL of the solvent layer was taken into 10 mL of toluene scintillation solution for determination of radioactivity.

[2] = test system: splenic cells of Lewis rats (T lymphocyte blastogenesis); assay: Test 2: T-cell growth inhibitor activity (T lymphocyte blastogenesis, Concanavalin A, AlamarBlue); type: cell-based; conditions: Lewis rat splenic cells, Concanavalin A 1 μg/mL, 72 hours, read-out: Test 2: T-cell growth inhibitory activity IC50
Method: Test 2: Determination of T-Cell Growth Inhibitor Activity
The T lymphocyte blastogenesis test was performed in microtiter plates with each well containing 1.5×10^5 splenic cells of Lewis rats in 0.1 mL RPMI-1640 medium supplemented with 10% fetal bovine serum (FBS), […] 2-mercaptoethanol, penicilln (100 units/mL) and streptomycin (100 μg/mL), to which Concanavalin A (1 μg/mL) was added. The cells were incubated at 37° C. in a humidified atmosphere of 5% CO2 for 72 hours. After the culture period, suppressive activities of the test compounds in T lymphocyte blastogenesis were quantified by AlamarBlue (trademark) Assay. The test samples were dissolved in DMSO and further diluted with RPMI-1640 medium and added to the culture. The activities of the test compounds were expressed as IC50.

IC50 [1] [nM] | SMILES | IC50 [2] [nM]
1.5 | O=C(/C=C/c1cnc(N[C@@H]2CCN(CCc3ccc(F)cc3F)C2)cn1)NO [Example 2, (2E)-3-[5-({(3R)-1-[2-(2,4-difluorophenyl)ethyl]-3-pyrrolidinyl}amino)-2-pyrazinyl]-N-hydroxyacrylamide dihydrochloride] | 2.3
2.7 | O=C(/C=C/c1cnc(N[C@@H]2CCN(CCc3c(F)cccc3F)C2)cn1)NO [Example 3, (2E)-3-[5-({(3R)-1-[2-(2,6-difluorophenyl)ethyl]-3-pyrrolidinyl}amino)-2-pyrazinyl]-N-hydroxyacrylamide dihydrochloride] | 1.2
3.6 | O=C(/C=C/c1cnc(N[C@@H]2CCN(CCc3cccs3)C2)cn1)NO [Example 4, (2E)-N-hydroxy-3-[5-({(3R)-1-[2-(2-thienyl)ethyl]-3-pyrrolidinyl}amino)-2-pyrazinyl]acrylamide dihydrochloride] | 1.2
1.5 | O=C(/C=C/c1cnc(N[C@@H]2CCCN(CCc3ccccc3F)C2)cn1)NO [Example 7, (2E)-3-[5-({(3R)-1-[2-(2-fluorophenyl)ethyl]-3-piperidinyl}amino)-2-pyrazinyl]-N-hydroxyacrylamide dihydrochloride] | 0.79
1.7 | O=C(/C=C/c1cnc(N[C@@H]2CCCN(CCc3ccc(F)cc3F)C2)cn1)NO [Example 8, (2E)-3-[5-({(3R)-1-[2-(2,4-difluorophenyl)ethyl]-3-piperidinyl}amino)-2-pyrazinyl]-N-hydroxyacrylamide dihydrochloride] | 1.1
1 | O=C(/C=C/c1cnc(N[C@@H]2CCCN(CCc3ccc(F)c(F)c3)C2)cn1)NO [Example 9, (2E)-3-[5-({(3R)-1-[2-(3,4-difluorophenyl)ethyl]-3-piperidinyl}amino)-2-pyrazinyl]-N-hydroxyacrylamide dihydrochloride] | 1.8
3 | CN(C)c1ccccc1CN1CC[C@@H](Nc2cnc(/C=C/C(=O)NO)cn2)C1 [Example 10, (2E)-3-[5-({(3R)-1-[2-(dimethylamino)benzyl]-3-pyrrolidinyl}amino)-2-pyrazinyl]-N-hydroxyacrylamide trihydrochloride] | 3.2
0.95 | COc1cc(CN2CC[C@@H](Nc3cnc(/C=C/C(=O)NO)cn3)C2)ccc1F [Example 11, (2E)-3-(5-{[(3R)-1-(4-fluoro-3-methoxybenzyl)-3-pyrrolidinyl]amino}-2-pyrazinyl)-N-hydroxyacrylamide dihydrochloride] | 4.5
0.59 | O=C(/C=C/c1cnc(N[C@@H]2CCN(CC3CCCC3)C2)cn1)NO [Example 12, (2E)-3-(5-{[(3R)-1-(cyclopentylmethyl)-3-pyrrolidinyl]amino}-2-pyrazinyl)-N-hydroxyacrylamide dihydrochloride] | 2
1.9 | O=C(/C=C/c1cnc(N[C@@H]2CCN(CC3(CO)CCCCC3)C2)cn1)NO [Example 13, (2E)-N-hydroxy-3-(5-{[(3R)-1-{[1-(hydroxymethyl)cyclohexyl]methyl}-3-pyrrolidinyl]amino}-2-pyrazinyl)acrylamide dihydrochloride] | 4.7
3.8 | O=C(/C=C/c1cnc(N[C@@H]2CCN(CC34CCC(CC3)O4)C2)cn1)NO [Example 14, (2E)-N-hydroxy-3-(5-{[(3R)-1-(7-oxabicyclo[2.2.1]hept-1-ylmethyl)-3-pyrrolidinyl]amino}-2-pyrazinyl)acrylamide dihydrochloride] | 1.2
4.4 | COc1ccc(F)cc1CN1CC[C@@H](Nc2cnc(/C=C/C(=O)NO)cn2)C1 [Example 15, (2E)-3-(5-{[(3R)-1-(5-fluoro-2-methoxybenzyl)-3-pyrrolidinyl]amino}-2-pyrazinyl)-N-hydroxyacrylamide dihydrochloride] | 6.4
6.6 | O=C(/C=C/c1cnc(N[C@@H]2CCN(Cc3cccc4ccccc34)C2)cn1)NO [Example 16, (2E)-N-hydroxy-3-[5-[{(3R)-1-(1-naphthylmethyl)-3-pyrrolidinyl}amino]-2-pyrazinyl]acrylamide dihydrochloride] | 4.1
3.3 | O=C(/C=C/c1cnc(N[C@@H]2CCCN(CCCc3ccccc3)C2)cn1)NO [Example 17, (2E)-N-hydroxy-3-[5-[{(3R)-1-(3-phenylpropyl)-3-piperidinyl}amino]-2-pyrazinyl]acrylamide dihydrochloride] | 5
0.79 | O=C(/C=C/c1cnc(N[C@@H]2CCN(CCC3CCCC3)C2)cn1)NO [Example 20, (2E)-3-(5-{[(3R)-1-(2-cyclopentylethyl)-3-pyrrolidinyl]amino}-2-pyrazinyl)-N-hydroxyacrylamide dihydrochloride] | 2.1
0.98 | O=C(/C=C/c1cnc(N[C@@H]2CCN(CCC3CCCCC3)C2)cn1)NO [Example 21, (2E)-3-(5-{[(3R)-1-(2-cyclohexylethyl)-3-pyrrolidinyl]amino}-2-pyrazinyl)-N-hydroxyacrylamide dihydrochloride] | 2.4
0.87 | O=C(/C=C/c1cnc(N[C@@H]2CCN(CCc3ccccc3Cl)C2)cn1)NO [Example 22, (2E)-3-[5-({(3R)-1-[2-(2-chlorophenyl)ethyl]-3-pyrrolidinyl}amino)-2-pyrazinyl]-N-hydroxyacrylamide dihydrochloride] | 1.3
0.81 | O=C(/C=C/c1cnc(N[C@@H]2CCCN(CCC3CCCC3)C2)cn1)NO [Example 24, (2E)-3-(5-{[(3R)-1-(2-cyclopentylethyl)-3-piperidinyl]amino}-2-pyrazinyl)-N-hydroxyacrylamide dihydrochloride] | 2.4
1.4 | O=C(/C=C/c1cnc(N[C@@H]2CCCN(CCc3ccccc3Cl)C2)cn1)NO [Example 26, (2E)-3-[5-({(3R)-1-[2-(2-chlorophenyl)ethyl]-3-piperidinyl}amino)-2-pyrazinyl]-N-hydroxyacrylamide dihydrochloride] | 0.44
0.92 | O=C(/C=C/c1cnc(N[C@@H]2CCCN(CCc3ccc(Cl)cc3)C2)cn1)NO [Example 27, (2E)-3-[5-({(3R)-1-[2-(4-chlorophenyl)ethyl]-3-piperidinyl}amino)-2-pyrazinyl]-N-hydroxyacrylamide dihydrochloride] | 0.38
4.2 | CC(C)(CN1CC[C@@H](Nc2cnc(/C=C/C(=O)NO)cn2)C1)c1ccccc1 [Example 28, (2E)-N-hydroxy-3-[5-[{(3R)-1-(2-methyl-2-phenylpropyl)-3-pyrrolidinyl}amino]-2-pyrazinyl]acrylamide dihydrochloride] | 11
6.5 | O=C(/C=C/c1cnc(N[C@@H]2CCN(CCCC3CCCCC3)C2)cn1)NO [Example 29, (2E)-3-[5-({(3R)-1-(3-cyclohexylpropyl)-3-pyrrolidinyl}amino)-2-pyrazinyl]-N-hydroxyacrylamide dihydrochloride] | 3.3

Source: patent US7750155B2, “Pyrazinyl hydroxyacrylamide compounds having an inhibitory effect on the activity of histone deacetylase” (Astellas Pharma Inc., priority 2006, dated 2010)
